Laboratory results taken from ChEMBL document CHEMBL1155194, “Synthesis and characterization of environment-sensitive fluorescent ligands for human 5-HT1A receptors with 1-arylpiperazine structure” (J Med Chem, 2009).

Molecular target: T1, 5-hydroxytryptamine receptor 1A (Homo sapiens, UniProt P08908)
T1 sequence (P08908 whole entry): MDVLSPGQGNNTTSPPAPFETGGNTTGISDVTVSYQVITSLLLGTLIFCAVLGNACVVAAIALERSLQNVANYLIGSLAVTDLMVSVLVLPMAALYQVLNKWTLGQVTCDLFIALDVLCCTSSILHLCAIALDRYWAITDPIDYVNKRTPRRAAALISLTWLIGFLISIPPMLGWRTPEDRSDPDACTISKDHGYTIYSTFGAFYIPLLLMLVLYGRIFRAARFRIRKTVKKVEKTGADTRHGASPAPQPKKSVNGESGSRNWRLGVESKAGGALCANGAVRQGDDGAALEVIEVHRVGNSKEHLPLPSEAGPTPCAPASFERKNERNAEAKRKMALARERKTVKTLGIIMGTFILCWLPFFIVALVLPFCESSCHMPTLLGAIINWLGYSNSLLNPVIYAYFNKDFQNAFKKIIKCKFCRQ
Assay: biochemical
Description: Displacement of [3H]8-OH-DPAT from human recombinant 5HT1A receptor expressed in HEK293 cells after 120 mins

Compared with `COc1ccccc1N1CCN(CCCCN2C(=O)c3ccc(N(C)C)cc3C2=O)CC1`, `COc1ccccc1N1CCN(CCCCCN2C(=O)c3ccc(N(C)C)cc3C2=O)CC1` is 16-fold higher in Ki: 0.5 nM for the first, 7.8 nM for the second.

First: COc1ccccc1N1CCN(CCN2C(=O)c3cccc4c(N)ccc(c34)C2=O)CC1
Second: COc1ccccc1N1CCN(CCCN2C(=O)c3cccc4c(N)ccc(c34)C2=O)CC1
The Ki of the first is 2.6-fold lower: 44 nM for the first, 116 nM for the second. The first binds more tightly here.

Compared with `COc1ccccc1N1CCN(CCNS(=O)(=O)c2cccc3c(N(C)C)cccc23)CC1`, `COc1ccccc1N1CCN(CCCNS(=O)(=O)c2cccc3c(N(C)C)cccc23)CC1` is 2.5-fold lower in Ki: 73 nM for the first, 29 nM for the second.

Going from `COc1ccccc1N1CCN(CCN2C(=O)c3ccc(N(C)C)cc3C2=O)CC1` to `COc1ccccc1N1CCN(CCCN2C(=O)c3ccc(N(C)C)cc3C2=O)CC1`, the Ki falls from 15 nM to 0.47 nM (32-fold).

Going from `COc1ccccc1N1CCN(CCCCCN2C(=O)c3cccc4c(N)ccc(c34)C2=O)CC1` to `COc1ccccc1N1CCN(CCCCN2C(=O)c3cccc4c(N)ccc(c34)C2=O)CC1`, the Ki rises from 0.67 nM to 6.8 nM (10-fold). The first binds more tightly here.

Compared with `COc1ccccc1N1CCN(CCCCNS(=O)(=O)c2cccc3c(N(C)C)cccc23)CC1`, `COc1ccccc1N1CCN(CCCCCNS(=O)(=O)c2cccc3c(N(C)C)cccc23)CC1` is 2.8-fold lower in Ki: 151 nM for the first, 54 nM for the second.
